{"source": "patent US20140199714A1", "about": "“METHOD FOR DETECTING CANCER CELLS METASTASIZING INTO SENTINEL LYMPH NODE” (SHINSHU UNIVERSITY, priority 2008, published 2014)", "format_in_all_cases": "cell-based", "key": {"[1]": {"system": "ICAM-1 protein in human LECs", "test": "Western blot analysis of ICAM-1 protein in human LECs", "details": "18 hrs.-stimulation of 10 ng/mL CCL2", "experimental": "Western blot analysis was performed to quantitatively evaluate the CCL2-mediated ICAM-1 expression on the cultured human LECs. The cells were dissolved in M-PER (Mammalian Protein Extraction Reagent available from Thermo Fisher Scientific Inc., US) and centrifuged at 14,000 r.p.m. for 10 min. A 15 μg sample of the total cell lysate was resolved in SDS sample buffer for sodium dodecyl sulfate-polyacrylamide gel electrophoresis (SDS-PAGE) and transferred to an polyvinylidene difluoride (PVDF) membrane (available from Atto Corporation, Japan), where it was incubated for 45 min The membrane was probed with the anti-ICAM-1 antiserum (dilution 1:1000, available from Cell Signaling Technology Inc., US) and then incubated with anti-rabbit immunoglobulin G (IgG) horseradish peroxidase conjugated antibody. The same membrane was reprobed with monoclonal anti-actin antibody (available from Santa Cruz Biotechnology Inc., US) and then visualized with an ECL-Western blotting detection system (available from Amersham Bioscience Inc., UK)."}, "VCAM-1 on human LECs": {"system": "VCAM-1 on human LECs", "test": "Immunohistochemical expression of VCAM-1 on cultured human LECs", "experimental": "Using an indirect immunohistochemical technique, the inventors examined the effects of the supernatants of culture medium of two kinds of carcinoma cells, MDA-MB-231 and MCF-7, on the expression of adhesion molecules such as E-selectin, P-selectin, vascular cell adhesion molecule (VCAM)-1, and intercellular adhesion molecule (ICAM)-1 on the human LECs. The carcinoma cells were plated in DMEM/F12 with 10% FBS, which was replaced the following day with DMEM/F12 with 3% FBS, and then collected after overnight culture. The collected solution was centrifuged at 2,000 rpm for 5 min. at 4° C. To examine the effects of the supernatants on the expression of the adhesion molecules on the human LECs, 1 mL of each collected solution was added to starvation culture medium, EBM-2 with 3% FBS of the human LECs, and then stimulated for 48 hrs. on the cells. In some experiments, the supernatant solutions at different concentrations (1/100 or 1/10,000 dilution) were constructed with appropriate volumes of DMEM/F12 with 3% FBS.\nIndirect immunohistochemical studies were performed on the cultured LECs seeded or glass slides coated with type I collagen, and then the cells were fixed with 3.3% formalin in phosphate-buffered saline solution (PBS), for 20 min. at room temperature. The cells were washed three times with PBS, and then incubated overnight at 4° C. with primary polyclonal human antisera to E-selectin/CD62E (dilution 10 μg/mL, available from R&D Systems, US), P-selectin/CD62P (dilution 10 μg/mL, available from R&D Systems, US), VCAM-1/CD106 (dilution 10 μg/mL, available from R&D Systems, US), and ICAM-1/CD54 (dilution 10 μg/mL, available from R&D Systems, US).\nBefore primary staining, the cultured cells were permeabilized with 0.1% TRITON-X. After washing three times in PBS, the cells were incubated for 1 hr. at room temperature with 1:100 diluted ALEXA FLUOR 488 donkey anti-mouse IgG (available from Invitrogen, US). The nuclei of cultured cells were counter-stained and mounted with PROLONG GOLD antifade reagent with 4′-6-diamidine-2-phenylindole (DAPI) (available from Molecular Probes, US), examined by a fluorescent microscope (Leica, Switzerland), and photographed.\nImmunohistochemistry was performed on the cultured human LECs or the fresh-frozen SLNs isolated from the breast cancer patients. In brief, the cultured LECs were fixed with 10% formalin in the phosphate-buffered saline solution (PBS) at room temperature. The cells were incubated for 4 hrs. at room temperature with primary polyclonal human antisera platelet-endothelial cell adhesion molecule (PECAM)-1 (dilution 1:100, available from BD Biosciences, US), lymphatic vessel endothelial hyaluronan receptor (LYVE)-1 (dilution 1:50, available from RELIATech, Germany), PROX-1 (dilution 1:50, available from AngioBio, US), podoplanin (dilution 1:50, available from AngioBio, US), vascular endothelium growth factor receptor 3 (VEGF R3) (dilution 1:50, available from Santa Cruz, US), E-selectin/CD62E (dilution 1:50, available from R&D systems, US), P-selectin/CD62P (dilution 1:50, available from R&D systems, US), vascular cell adhesion molecule (VCAM)-1/CD106 (dilution 1:50, available from R&D systems, US), and intercellular adhesion molecule (ICAM)-1/CD54 (dilution 1:50, available from R&D systems, US). Before the staining, permeabilization of the cultured cells with 0.1% TRITON-X was performed. Then, the cells were stained using the following antibodies: ALEXA FLUOR 488 chicken anti-rabbit IgG or ALEXA FLUOR 488 donkey anti-mouse IgG (available from Invitrogen, US). The nuclei of the cultured cells were counter-stained and mounted with ProLong Gold antifade reagent with 4′-6-diamidine-2-phenylindole (DAPI) (available from Molecular Probes, US). The cultured cells were examined by a fluorescent microscope (available from Leica, Germany) and photographed. […]"}, "[2]": {"system": "ICAM-1 mRNA in human LECs", "test": "Quantitative RT-PCR of ICAM-1 mRNA in human LECs", "experimental": "The 0 hr., 1 hr., 4 hrs. and 18 hrs. expressions of ICAM-1 mRNA were evaluated by quantitative reverse transcription polymerase chain reaction (RT-PCR) for ICAM-1 cDNA. The total RNA was extracted from the cultured human LECs using ISOGEN reagent (available from Nippon Gene Co., Ltd., Japan) according to the manufacturer's instructions. The concentration of each RNA was calculated using 260 nm absorbance with a spectrophotometer. The extracted RNA was reverse-transcribed with M-MLV reverse transcriptase (available from Ambion Inc., US). For RT-PCR analysis, each superscript first-strand synthesis kit (available from Invitrogen Corporation, US) was used with 1.0 μg of the total RNA. Forward and reverse primers of ICAM-1 and cyclophilin A were used for each specific probe, respectively as follows; ICAM-1 (available from TAKARA BIO INC., Japan), and cyclophilin A:\nThe cDNA was diluted 5-fold prior to PCR amplification. Quantitative RT-PCR was performed using a LIGHT CYCLER rapid thermal cycler system (available from Roche Diagnostics Limited, UK). Reactions were performed in a 20 μL volume with 0.5 μM primers, TAQ DNA POLYMERASE, and the buffer was included in the SYBR PREMIX EX TAQ (available from TAKARA BIO INC., Japan; SYBR is a registered trademark). The PCR protocol included 10 secs. of denaturation step followed by 45 cycles of 95° C. denaturation for 5 secs. and 60° C. annealing for 20 secs. The fluorescent product was detected at the end of the 72° C. extension period. Negative controls included PCR reactions with cDNA omitted. To confirm amplification specificity, PCR products from each primer pair were subjected to melting curve analysis. Quantification data was analyzed with LIGHT CYCLER analysis software. The results are presented as normalized ratio of the expression of ICAM-1 mRNA to cyclophilin A."}}}
{"substance": "CCL2: chemokine CCL2", "values": [{"measurement": "expression of ICAM-1 protein", "setting": "[1]", "result": "significant expression"}, {"measurement": "expression of VCAM-1 on human LECs", "setting": "VCAM-1 on human LECs; 4 hrs-stimulation of 10 ng/mL CCL2", "result": "no or little expression"}, {"measurement": "expression of VCAM-1 on human LECs", "setting": "VCAM-1 on human LECs; 18 hrs.-stimulation with 10 ng/mL chemokine", "result": "Little or no expression"}, {"measurement": "expression of ICAM-1 mRNA (ratio to cyclophilin A)", "setting": "[2]; 10 ng/mL CCL2, 1 hr. after the stimulation", "result": "significantly increased"}, {"measurement": "expression of ICAM-1 mRNA (ratio to cyclophilin A)", "setting": "[2]; 10 ng/mL CCL2, around 4 hrs. after the stimulation", "result": "maximal level"}, {"measurement": "expression of ICAM-1 mRNA (ratio to cyclophilin A)", "setting": "[2]; 10 ng/mL CCL2, up to 18 hrs. after the stimulation", "result": "increased slightly"}]}
